From patent US8192962B2, “Processes for detecting toxic substances” (Daikin Industries, Ltd., priority 2001, dated 2012)

Tested on: Transport facilitation protein genes
Test: DNA chip mRNA expression in yeast, transport facilitation protein genes (Table 5)
Format: cell-based, Saccharomyces cerevisiae S288C
In short: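 In this screen, yeast in logarithmic growth are challenged for two hours with a toxic substance at a non-lethal inhibitory concentration. Their mRNA, converted to Cy3- or Cy5-labeled cDNA, hybridizes at 65° C. to a chip spanning every yeast gene, and expression is expressed as a ratio to untreated cells.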

SMILES: N#Cc1c(Cl)c(Cl)c(Cl)c(C#N)c1Cl [(9), 2,4,5,6-tetrachloro-1,3-benzenedicarbonitrile]
- The level of expressed mRNA in the presence of chemical substance/The level of expressed mRNA in the absence of chemical substance (yeast gene YBL030C): 0.4
- The level of expressed mRNA in the presence of chemical substance/The level of expressed mRNA in the absence of chemical substance (yeast gene YBL099W): 0.9
- The level of expressed mRNA in the presence of chemical substance/The level of expressed mRNA in the absence of chemical substance (yeast gene YBR052C): 2.3
- The level of expressed mRNA in the presence of chemical substance/The level of expressed mRNA in the absence of chemical substance (yeast gene YBR068C): 0.8
- The level of expressed mRNA in the presence of chemical substance/The level of expressed mRNA in the absence of chemical substance (yeast gene YBR127C): 0.6
- The level of expressed mRNA in the presence of chemical substance/The level of expressed mRNA in the absence of chemical substance (yeast gene YBR132C): 0.8
- The level of expressed mRNA in the presence of chemical substance/The level of expressed mRNA in the absence of chemical substance (yeast gene YBR207W): 1.7
- The level of expressed mRNA in the presence of chemical substance/The level of expressed mRNA in the absence of chemical substance (yeast gene YBR293W): 5.5
- The level of expressed mRNA in the presence of chemical substance/The level of expressed mRNA in the absence of chemical substance (yeast gene YBR294W): 5.2
- The level of expressed mRNA in the presence of chemical substance/The level of expressed mRNA in the absence of chemical substance (yeast gene YBR295W): 1.2
- The level of expressed mRNA in the presence of chemical substance/The level of expressed mRNA in the absence of chemical substance (yeast gene YBR298C): 0.3
- The level of expressed mRNA in the presence of chemical substance/The level of expressed mRNA in the absence of chemical substance (yeast gene YCL025C): 0.3
- The level of expressed mRNA in the presence of chemical substance/The level of expressed mRNA in the absence of chemical substance (yeast gene YCL038C): 1.1
- The level of expressed mRNA in the presence of chemical substance/The level of expressed mRNA in the absence of chemical substance (yeast gene YCR024C-A): 0.2
- The level of expressed mRNA in the presence of chemical substance/The level of expressed mRNA in the absence of chemical substance (yeast gene YCR037C): 0.6
- The level of expressed mRNA in the presence of chemical substance/The level of expressed mRNA in the absence of chemical substance (yeast gene YCR098C): 1.4
- The level of expressed mRNA in the presence of chemical substance/The level of expressed mRNA in the absence of chemical substance (yeast gene YDL128W): 0.5
- The level of expressed mRNA in the presence of chemical substance/The level of expressed mRNA in the absence of chemical substance (yeast gene YDL198C): 1.9
- The level of expressed mRNA in the presence of chemical substance/The level of expressed mRNA in the absence of chemical substance (yeast gene YDL210W): 1.2
- The level of expressed mRNA in the presence of chemical substance/The level of expressed mRNA in the absence of chemical substance (yeast gene YDL245C): 0.4
- The level of expressed mRNA in the presence of chemical substance/The level of expressed mRNA in the absence of chemical substance (yeast gene YDR038C): 1.4
- The level of expressed mRNA in the presence of chemical substance/The level of expressed mRNA in the absence of chemical substance (yeast gene YDR039C): 1.8
- The level of expressed mRNA in the presence of chemical substance/The level of expressed mRNA in the absence of chemical substance (yeast gene YDR086C): 0.6
- The level of expressed mRNA in the presence of chemical substance/The level of expressed mRNA in the absence of chemical substance (yeast gene YDR270W): 2.9
- The level of expressed mRNA in the presence of chemical substance/The level of expressed mRNA in the absence of chemical substance (yeast gene YDR298C): 1.0
- The level of expressed mRNA in the presence of chemical substance/The level of expressed mRNA in the absence of chemical substance (yeast gene YDR342C): 0.2
- The level of expressed mRNA in the presence of chemical substance/The level of expressed mRNA in the absence of chemical substance (yeast gene YDR343C): 0.3
- The level of expressed mRNA in the presence of chemical substance/The level of expressed mRNA in the absence of chemical substance (yeast gene YDR345C): 0.2
- The level of expressed mRNA in the presence of chemical substance/The level of expressed mRNA in the absence of chemical substance (yeast gene YDR387C): 1.4
- The level of expressed mRNA in the presence of chemical substance/The level of expressed mRNA in the absence of chemical substance (yeast gene YDR497C): 0.4
- The level of expressed mRNA in the presence of chemical substance/The level of expressed mRNA in the absence of chemical substance (yeast gene YEL027W): 0.9
- The level of expressed mRNA in the presence of chemical substance/The level of expressed mRNA in the absence of chemical substance (yeast gene YEL063C): 0.8
- The level of expressed mRNA in the presence of chemical substance/The level of expressed mRNA in the absence of chemical substance (yeast gene YEL065W): 0.1
- The level of expressed mRNA in the presence of chemical substance/The level of expressed mRNA in the absence of chemical substance (yeast gene YER053C): 1.3
- The level of expressed mRNA in the presence of chemical substance/The level of expressed mRNA in the absence of chemical substance (yeast gene YFL011W): 0.3
- The level of expressed mRNA in the presence of chemical substance/The level of expressed mRNA in the absence of chemical substance (yeast gene YFL041W): 0.8
- The level of expressed mRNA in the presence of chemical substance/The level of expressed mRNA in the absence of chemical substance (yeast gene YFL050C): 0.5
- The level of expressed mRNA in the presence of chemical substance/The level of expressed mRNA in the absence of chemical substance (yeast gene YFL054C): 2.0
- The level of expressed mRNA in the presence of chemical substance/The level of expressed mRNA in the absence of chemical substance (yeast gene YGL006W): 3.0
- The level of expressed mRNA in the presence of chemical substance/The level of expressed mRNA in the absence of chemical substance (yeast gene YGL008C): 0.0
- The level of expressed mRNA in the presence of chemical substance/The level of expressed mRNA in the absence of chemical substance (yeast gene YGL104C): 4.6
- The level of expressed mRNA in the presence of chemical substance/The level of expressed mRNA in the absence of chemical substance (yeast gene YGL167C): 1.3
- The level of expressed mRNA in the presence of chemical substance/The level of expressed mRNA in the absence of chemical substance (yeast gene YGL255W): 0.3
- The level of expressed mRNA in the presence of chemical substance/The level of expressed mRNA in the absence of chemical substance (yeast gene YGR055W): 5.0
- The level of expressed mRNA in the presence of chemical substance/The level of expressed mRNA in the absence of chemical substance (yeast gene YGR065C): 1.2
- The level of expressed mRNA in the presence of chemical substance/The level of expressed mRNA in the absence of chemical substance (yeast gene YGR082W): 0.6
- The level of expressed mRNA in the presence of chemical substance/The level of expressed mRNA in the absence of chemical substance (yeast gene YGR096W): 0.8
- The level of expressed mRNA in the presence of chemical substance/The level of expressed mRNA in the absence of chemical substance (yeast gene YGR138C): 0.5
- The level of expressed mRNA in the presence of chemical substance/The level of expressed mRNA in the absence of chemical substance (yeast gene YGR191W): 0.1
- The level of expressed mRNA in the presence of chemical substance/The level of expressed mRNA in the absence of chemical substance (yeast gene YGR197C): 16.7
- The level of expressed mRNA in the presence of chemical substance/The level of expressed mRNA in the absence of chemical substance (yeast gene YGR224W): 0.9
